Reference: ChEMBL document CHEMBL4330074, “Discovery of potent azaindazole leucine-rich repeat kinase 2 (LRRK2) inhibitors possessing a key intramolecular hydrogen bond - Part 2” (Bioorg Med Chem Lett, 2019)
pIC50, pKi: −log10 of the molar value.

Key:
Homo sapiens = organism: Homo sapiens; assay: Selectivity ratio of Ki for JAK2 (unknown origin) to Ki for recombinant human GST-tagged LRRK2 G2019S mutant catalytic domain (970 to 2527 residues) expressed in insect cells
[1] = target: T1, Leucine-rich repeat serine/threonine-protein kinase 2 (Homo sapiens, UniProt Q5S007, G2019S); assay: Inhibition of recombinant human GST-tagged LRRK2 G2019S mutant catalytic domain (970 to 2527 residues) expressed in insect cells using RtGWWRFYTLRRARQGNTKQR as substrate measured after 180 mins in presence of [gamma33P]ATP by topcount method
P-gp (human MDR1) = assay: Efflux ratio of permeability from basolateral to apical side over apical to basolateral side in MDCK-MDR1 cells harboring human P-gp at 5 uM; format: ADME, cell-based, Canis lupus familiaris; details: dog
[2] = target: T1, Leucine-rich repeat serine/threonine-protein kinase 2; assay: Inhibition of LRRK2 G2019S mutant (unknown origin) by cell based assay
[3] = Clearance in rat at 0.5 mg/kg, iv; format: ADME, organism-based; details: in vivo
[4] = Clearance in rat at 0.5 to 1 mg/kg, iv; format: ADME, organism-based; details: in vivo
[5] = target: T2, Dual specificity protein kinase TTK (Homo sapiens) (UniProt P33981); assay: Inhibition of TTK (unknown origin) at 1 uM relative to control
T2 sequence (whole entry): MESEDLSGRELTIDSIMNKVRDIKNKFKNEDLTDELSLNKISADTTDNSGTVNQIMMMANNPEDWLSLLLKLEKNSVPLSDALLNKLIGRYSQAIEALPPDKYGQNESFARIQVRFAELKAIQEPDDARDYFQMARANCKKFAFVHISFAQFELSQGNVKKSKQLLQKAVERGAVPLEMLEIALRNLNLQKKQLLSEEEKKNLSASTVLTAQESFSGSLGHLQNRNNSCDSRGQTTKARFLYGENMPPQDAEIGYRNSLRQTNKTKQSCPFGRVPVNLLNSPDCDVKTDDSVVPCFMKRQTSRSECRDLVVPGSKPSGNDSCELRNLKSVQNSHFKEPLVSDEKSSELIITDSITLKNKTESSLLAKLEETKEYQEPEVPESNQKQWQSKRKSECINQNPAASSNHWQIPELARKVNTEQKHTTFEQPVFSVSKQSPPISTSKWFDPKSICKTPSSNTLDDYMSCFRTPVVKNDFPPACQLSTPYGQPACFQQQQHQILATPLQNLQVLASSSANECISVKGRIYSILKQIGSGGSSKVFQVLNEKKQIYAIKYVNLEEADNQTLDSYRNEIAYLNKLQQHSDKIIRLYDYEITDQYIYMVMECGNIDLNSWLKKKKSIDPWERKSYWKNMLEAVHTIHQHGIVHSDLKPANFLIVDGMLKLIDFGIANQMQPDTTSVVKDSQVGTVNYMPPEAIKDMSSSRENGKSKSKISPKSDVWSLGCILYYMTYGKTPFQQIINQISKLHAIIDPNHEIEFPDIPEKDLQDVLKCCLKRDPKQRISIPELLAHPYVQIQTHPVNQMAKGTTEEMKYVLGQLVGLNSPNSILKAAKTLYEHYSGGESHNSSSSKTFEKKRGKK

[6] = target: Maternal embryonic leucine zipper kinase (Homo sapiens) (UniProt Q14680); assay: Inhibition of MELK (unknown origin) at 1 uM relative to control
[7] = Oral bioavailability in rat at 1 mg/kg; format: ADME, organism-based; details: in vivo
TAK1/TAB1 (Homo sapiens) = TAK1/TAB1 (Homo sapiens) (UniProt Q15750+O43318); assay: Inhibition of TAK1/TAB1 (unknown origin) at 1 uM relative to control; format: protein-complex assay
[8] = Ratio of AUC in rat brain to plasma at 0.5 mg/kg, iv; format: ADME, organism-based; details: brain and plasma, read-out: Ratio AUC
[9] = Ratio of fAUC in rat brain to plasma at 0.5 mg/kg, iv; format: ADME, organism-based; details: brain and plasma
[10] = target: Serine/threonine-protein kinase 26 (Homo sapiens) (UniProt Q9P289); assay: Inhibition of MST4 (unknown origin) at 1 uM relative to control
Serine/threonine-protein kinase 26 (Homo sapiens), sequence (Q9P289 2-416 limits assumed): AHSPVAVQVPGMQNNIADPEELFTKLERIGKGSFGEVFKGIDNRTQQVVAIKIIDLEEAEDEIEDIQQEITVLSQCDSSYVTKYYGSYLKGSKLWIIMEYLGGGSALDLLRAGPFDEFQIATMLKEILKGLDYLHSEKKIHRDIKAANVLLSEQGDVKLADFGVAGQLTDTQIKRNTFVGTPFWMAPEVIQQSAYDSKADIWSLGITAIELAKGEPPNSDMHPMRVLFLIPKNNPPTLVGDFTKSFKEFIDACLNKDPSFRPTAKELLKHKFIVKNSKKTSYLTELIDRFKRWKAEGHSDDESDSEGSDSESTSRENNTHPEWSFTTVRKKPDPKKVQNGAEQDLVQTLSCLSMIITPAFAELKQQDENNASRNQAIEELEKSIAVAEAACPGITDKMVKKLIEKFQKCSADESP

T1 sequence (Q5S007 whole entry G2019S, the tested form may be a part): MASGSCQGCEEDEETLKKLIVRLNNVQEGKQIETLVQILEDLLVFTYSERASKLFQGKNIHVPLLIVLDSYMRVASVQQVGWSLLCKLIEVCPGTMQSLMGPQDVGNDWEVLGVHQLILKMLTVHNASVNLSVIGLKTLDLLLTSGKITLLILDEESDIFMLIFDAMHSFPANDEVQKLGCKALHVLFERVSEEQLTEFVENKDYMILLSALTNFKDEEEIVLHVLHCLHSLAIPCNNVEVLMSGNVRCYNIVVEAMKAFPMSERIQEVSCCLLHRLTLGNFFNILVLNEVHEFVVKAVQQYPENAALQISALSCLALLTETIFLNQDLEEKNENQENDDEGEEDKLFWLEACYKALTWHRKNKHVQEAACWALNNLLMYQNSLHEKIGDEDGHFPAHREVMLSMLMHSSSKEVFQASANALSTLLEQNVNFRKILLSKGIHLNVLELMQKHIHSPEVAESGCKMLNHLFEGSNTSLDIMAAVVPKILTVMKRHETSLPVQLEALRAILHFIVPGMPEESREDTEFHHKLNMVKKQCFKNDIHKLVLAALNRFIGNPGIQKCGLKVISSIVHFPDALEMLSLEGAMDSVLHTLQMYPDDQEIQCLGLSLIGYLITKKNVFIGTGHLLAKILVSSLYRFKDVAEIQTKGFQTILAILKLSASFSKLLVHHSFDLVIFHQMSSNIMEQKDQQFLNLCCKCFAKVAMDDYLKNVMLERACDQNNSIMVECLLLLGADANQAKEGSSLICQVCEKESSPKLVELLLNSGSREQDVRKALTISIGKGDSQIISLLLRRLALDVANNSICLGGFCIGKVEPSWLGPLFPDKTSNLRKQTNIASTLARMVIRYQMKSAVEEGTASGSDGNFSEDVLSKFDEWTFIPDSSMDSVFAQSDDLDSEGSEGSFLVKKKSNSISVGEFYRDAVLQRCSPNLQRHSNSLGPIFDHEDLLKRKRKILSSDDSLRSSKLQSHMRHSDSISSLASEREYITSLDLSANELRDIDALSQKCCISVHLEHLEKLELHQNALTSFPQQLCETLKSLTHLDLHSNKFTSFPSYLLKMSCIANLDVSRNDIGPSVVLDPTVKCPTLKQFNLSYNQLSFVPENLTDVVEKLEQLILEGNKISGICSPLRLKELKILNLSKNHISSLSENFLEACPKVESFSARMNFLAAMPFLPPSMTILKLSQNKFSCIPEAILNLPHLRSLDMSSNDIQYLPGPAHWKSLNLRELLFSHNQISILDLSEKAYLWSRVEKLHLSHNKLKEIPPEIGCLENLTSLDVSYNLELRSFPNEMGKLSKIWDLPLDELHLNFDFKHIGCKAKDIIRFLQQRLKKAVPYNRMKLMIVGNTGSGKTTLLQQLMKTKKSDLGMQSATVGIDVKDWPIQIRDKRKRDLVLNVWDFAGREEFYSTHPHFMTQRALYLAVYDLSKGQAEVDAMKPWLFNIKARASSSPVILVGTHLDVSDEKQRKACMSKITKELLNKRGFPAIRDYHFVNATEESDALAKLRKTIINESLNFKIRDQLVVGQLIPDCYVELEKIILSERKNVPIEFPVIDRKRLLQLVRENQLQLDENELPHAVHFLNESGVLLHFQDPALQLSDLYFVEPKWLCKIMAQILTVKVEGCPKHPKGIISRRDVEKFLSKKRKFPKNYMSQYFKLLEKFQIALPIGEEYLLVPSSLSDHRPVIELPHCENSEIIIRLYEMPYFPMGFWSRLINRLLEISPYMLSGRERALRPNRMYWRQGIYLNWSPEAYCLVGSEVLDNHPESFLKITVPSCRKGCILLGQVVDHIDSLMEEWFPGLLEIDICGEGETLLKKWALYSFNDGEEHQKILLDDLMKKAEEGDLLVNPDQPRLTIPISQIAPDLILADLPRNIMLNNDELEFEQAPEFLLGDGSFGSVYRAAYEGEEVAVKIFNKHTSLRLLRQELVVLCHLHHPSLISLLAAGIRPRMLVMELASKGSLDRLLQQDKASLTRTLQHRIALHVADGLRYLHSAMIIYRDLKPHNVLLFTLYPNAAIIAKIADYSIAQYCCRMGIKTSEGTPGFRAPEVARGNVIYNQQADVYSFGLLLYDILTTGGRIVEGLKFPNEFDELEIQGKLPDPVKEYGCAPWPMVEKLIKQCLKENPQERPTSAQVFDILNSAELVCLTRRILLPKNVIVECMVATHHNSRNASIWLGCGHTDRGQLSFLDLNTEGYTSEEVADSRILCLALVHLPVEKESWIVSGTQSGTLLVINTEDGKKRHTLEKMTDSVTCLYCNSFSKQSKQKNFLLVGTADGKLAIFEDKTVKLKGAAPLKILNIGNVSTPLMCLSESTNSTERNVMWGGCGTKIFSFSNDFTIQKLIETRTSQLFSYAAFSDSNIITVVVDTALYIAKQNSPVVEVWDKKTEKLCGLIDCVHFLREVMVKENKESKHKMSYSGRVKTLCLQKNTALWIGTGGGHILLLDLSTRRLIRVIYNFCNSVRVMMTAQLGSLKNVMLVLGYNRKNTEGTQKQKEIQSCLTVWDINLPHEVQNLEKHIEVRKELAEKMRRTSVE
Maternal embryonic leucine zipper kinase (Homo sapiens), sequence (Q14680 whole entry, looked up): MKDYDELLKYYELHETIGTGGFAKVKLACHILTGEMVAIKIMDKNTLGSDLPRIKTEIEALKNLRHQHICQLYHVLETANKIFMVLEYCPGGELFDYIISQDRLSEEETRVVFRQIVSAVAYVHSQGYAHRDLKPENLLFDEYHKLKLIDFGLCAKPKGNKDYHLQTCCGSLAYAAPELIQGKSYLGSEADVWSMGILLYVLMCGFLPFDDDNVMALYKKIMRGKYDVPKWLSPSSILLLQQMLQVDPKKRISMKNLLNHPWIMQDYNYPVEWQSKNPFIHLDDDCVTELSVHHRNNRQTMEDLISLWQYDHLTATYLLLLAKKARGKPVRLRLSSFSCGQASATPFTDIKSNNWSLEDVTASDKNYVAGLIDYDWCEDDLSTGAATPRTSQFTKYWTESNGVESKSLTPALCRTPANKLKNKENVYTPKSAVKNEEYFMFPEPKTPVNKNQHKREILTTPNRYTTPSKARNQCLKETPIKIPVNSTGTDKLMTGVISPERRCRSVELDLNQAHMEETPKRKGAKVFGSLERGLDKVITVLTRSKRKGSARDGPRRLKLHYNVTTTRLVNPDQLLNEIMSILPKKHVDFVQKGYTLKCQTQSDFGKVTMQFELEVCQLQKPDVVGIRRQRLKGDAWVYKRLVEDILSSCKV

Row | Structure (SMILES) | pKi [1] | efflux ratio at 5 µM (P-gp (human MDR1)) | pIC50 [2] | also measured
1 | Cc1[nH]nc2ccnc(NC3CCOCC3)c12 | – | – | – | Ratio Ki (Homo sapiens): 20
2 | c1cc(-c2n[nH]c3ccnc(OC4CCOCC4)c23)nc(N2CCOCC2)c1 | 6.83 | – | – | –
3 | CCc1cc(-c2n[nH]c3ccnc(NC4CCOCC4)c23)n(C)n1 | 5.41 | 11 | – | –
4 | CC(C)(O)Cn1cc(-c2n[nH]c3ccnc(OC4CCOCC4)c23)cn1 | 7.68 | 80 | 7.89 | clearance [3]: 30 mL/min/kg
5 | c1cc(-c2n[nH]c3ccnc(OC4CCOCC4)c23)[nH]n1 | 7.36 | – | – | –
6 | Cc1n[nH]c2ccnc(NC3CCOCC3)c12 | 6.74 | 1.1 | 6.37 | clearance [4]: 25 mL/min/kg
7 | Cc1n[nH]c2ccnc(OC3CCOCC3)c12 | 7.36 | 0.9 | 6.52 | clearance [4]: 34 mL/min/kg; Ratio Ki (Homo sapiens): 20
8 | c1cc(-c2n[nH]c3ccnc(NC4CCOCC4)c23)cc(N2CCOCC2)n1 | – | 1.5 | 6.87 | clearance [4]: 117 mL/min/kg
9 | CC(C)Nc1nccc2[nH]nc(-c3nnc(C4CC4)n3C)c12 | 6.82 | – | – | –
10 | CC(C)c1n[nH]c(-c2n[nH]c3ccnc(OC4CCOCC4)c23)n1 | 5.34 | – | – | –
11 | CC(C)c1nc(-c2n[nH]c3ccnc(NC4CCOCC4)c23)n[nH]1 | 8.11 | 21 | 7.46 | clearance [3]: 35 mL/min/kg

More lines, main results first:

Row | pKi [1] | efflux ratio at 5 µM (P-gp (human MDR1)) | pIC50 [2] | Structure (SMILES) | also measured
12 | 9.30 | 10 | 8.35 | CCc1cc(-c2n[nH]c3ccnc(NC4CCOCC4)c23)nn1C | –
13 | 8.92 | 23 | 7.31 | CC(C)n1cc(-c2n[nH]c3ccnc(NC4CCOCC4)c23)nn1 | –
14 | 8.46 | 4 | – | CCc1cc(-c2n[nH]c3ccnc(NC(C)C)c23)nn1C | –
15 | 8.38 | 3.4 | 7.62 | c1cc(-c2n[nH]c3ccnc(OC4CCOCC4)c23)cc(N2CCOCC2)n1 | clearance [4]: 69 mL/min/kg; inhibition [5]: 86%; Ratio Ki (Homo sapiens): 882; inhibition [6]: 60%
16 | 8.51 | 3.6 | 7.39 | c1ccc(-c2n[nH]c3ccnc(NC4CCOCC4)c23)nc1 | clearance [3]: 22 mL/min/kg
17 | 8.39 | 1.4 | 7.62 | FC(F)(F)c1cc(-c2n[nH]c3ccnc(NC4CCOCC4)c23)ncn1 | bioavailability [7]: 62%; clearance [3]: 18 mL/min/kg; inhibition (TAK1/TAB1 (Homo sapiens)): 51%; inhibition [5]: 52%; Kp [8]: 1; Ratio Ki (Homo sapiens): 1000; Kp uu [9]: 0.22; inhibition [10]: 59%
